For one assay, the target named is T1, 5-HT1a (Homo sapiens, UniProt P08908).
T1 sequence (P08908 1-422): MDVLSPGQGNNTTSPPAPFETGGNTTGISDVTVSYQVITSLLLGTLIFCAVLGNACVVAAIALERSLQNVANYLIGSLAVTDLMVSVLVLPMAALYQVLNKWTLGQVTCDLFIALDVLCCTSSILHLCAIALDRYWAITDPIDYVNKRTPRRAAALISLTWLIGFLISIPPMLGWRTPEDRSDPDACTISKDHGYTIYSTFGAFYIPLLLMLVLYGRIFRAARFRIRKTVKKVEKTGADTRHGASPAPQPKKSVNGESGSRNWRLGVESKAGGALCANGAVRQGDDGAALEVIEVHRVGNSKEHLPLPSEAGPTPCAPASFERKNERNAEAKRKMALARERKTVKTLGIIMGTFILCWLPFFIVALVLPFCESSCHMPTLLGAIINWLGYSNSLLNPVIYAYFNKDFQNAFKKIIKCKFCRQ
The assay can be described thus: Receptor selectivity binding, 5-HT1a. The note with it: Table 3. How it is done: (§1) For their high binding affinities for 5-HT2c, compounds in Examples 14 to 18, 20, and 22 or in Comparative Example 1 were used for the experiment with reaction mixtures. Except that CNS receptors such as 5-HT1a, 5-HT2a, 5-HT7, D2, D3 or D4 other than 5-HT2c were used as a receptor, IC50 values (nM) were measured in the same manner as in Experimental Example 1.

The next assay concerns the target T2, D4 (Homo sapiens, UniProt P21917).
T2 sequence (P21917 1-419): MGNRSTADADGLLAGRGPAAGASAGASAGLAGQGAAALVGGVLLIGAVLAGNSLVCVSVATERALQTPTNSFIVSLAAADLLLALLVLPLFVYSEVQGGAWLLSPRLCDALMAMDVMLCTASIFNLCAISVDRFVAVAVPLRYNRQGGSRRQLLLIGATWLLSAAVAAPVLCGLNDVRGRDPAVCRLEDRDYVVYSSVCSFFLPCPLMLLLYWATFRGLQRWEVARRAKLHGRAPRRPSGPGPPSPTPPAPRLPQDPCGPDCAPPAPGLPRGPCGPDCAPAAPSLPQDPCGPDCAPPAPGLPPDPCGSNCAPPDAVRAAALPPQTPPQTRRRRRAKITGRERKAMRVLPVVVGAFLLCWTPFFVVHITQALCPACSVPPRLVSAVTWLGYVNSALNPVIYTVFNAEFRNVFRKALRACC
The assay can be described thus: Receptor selectivity binding, D4. To be noted: Table 3. How it is done:
as §1

A further assay addresses 5-HT6 (Homo sapiens, UniProt P50406). Kind of assay: Receptor selectivity binding, 5-HT6. The note with it: Table 3. How it is done: as §1
Another assay has as its target D3 (Homo sapiens, UniProt P35462). The assay can be described thus: Receptor selectivity binding, D3. To be noted: Table 3. Here is the method:
as §1

The target in another assay is 5-HT7 (Homo sapiens, UniProt P34969). Kind of assay: Receptor selectivity binding, 5-HT7. To be noted: Table 3. Here is the method: as §1
For assay [1], the target named is T3, human gene recombinant 5-HT2c receptor expressed in CHO-K1 cell (Homo sapiens, UniProt P28335).
T3 construct: purchased Euroscreen, Belgium; host or cells: CHO-K1
T3 sequence (P28335 33-458): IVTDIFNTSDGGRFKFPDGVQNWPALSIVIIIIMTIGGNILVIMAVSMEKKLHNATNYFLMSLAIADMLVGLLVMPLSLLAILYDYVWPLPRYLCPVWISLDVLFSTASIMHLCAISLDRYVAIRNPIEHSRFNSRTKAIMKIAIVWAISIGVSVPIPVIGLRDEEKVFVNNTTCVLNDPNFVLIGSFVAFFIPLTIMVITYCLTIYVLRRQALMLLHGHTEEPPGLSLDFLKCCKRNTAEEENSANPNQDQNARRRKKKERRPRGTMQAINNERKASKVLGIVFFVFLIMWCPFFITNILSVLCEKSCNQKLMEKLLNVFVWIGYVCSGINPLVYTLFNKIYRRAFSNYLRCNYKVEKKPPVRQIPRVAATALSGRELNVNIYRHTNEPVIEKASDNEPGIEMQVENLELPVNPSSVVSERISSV
The assay can be described thus: Binding affinity to the serotonin 5-HT2c receptor ([3H]mesulergine). Here is the method: As a receptor, a human gene recombinant 5-HT2c receptor expressed in CHO—K1 cell was purchased from Euroscreen, Belgium and used in the experiment, and as a radioactive isotope, [3H]mesulergine (Amersham Biosciences, UK).
A final volume of 0.25 ml reaction mixture was prepared by adding 50 mM Tris-HCl buffer (pH 7.7) containing one of the compounds in Examples 1-29 or Comparative Examples 1-2, 1 nM of [3H]mesulergine, 5-HT2c receptor membranes (4 D/well), 0.1% ascorbic acid and 10 µM pargyline, and incubated at 37° C. for 30 minutes. After incubation, the reaction was terminated by the rapid filtration using an Inotech harvester (Inotech) through a Wallace GF/C glass fiber filter (Wallac, Finland) which was presoaked in 1% BSA, and then washed with ice-cold 50 mM Tris-HCl buffer. The filter was covered with MeltiLex, sealed in a sample bag followed by drying in the oven, and counted by MicroBeta Plus (Wallac). Non-specific binding was determined in the presence of […] Mianserin. Three repeating experiments were carried out with 7-8 concentrations of the compound in Examples 1-29 or the compound in comparative examples 1-2, run in duplicate tubes, and isotherms from the three assays were calculated by a nonlinear regression analysis (GraphPad Prism Program, San Diego, USA) to yield IC50 values.

In another assay the target is D2 (Homo sapiens, UniProt P14416). Kind of assay: Receptor selectivity binding, D2. To be noted: Table 3. How it is done:
as §1

A further assay concerns the target 5-HT2a (Homo sapiens, UniProt P28223). The assay can be described thus: Receptor selectivity binding, 5-HT2a. To be noted: Table 3. Here is the method:
as §1

A further assay deals with T4, human 5-HT2c receptors (Homo sapiens, UniProt P28335).
T4 sequence (P28335 33-458): T3 sequence (P28335 33-458)
To be noted: for Inhibition rate of serotonin (5-HT)-induced [35S]GTPS increase: 30 µM serotonin.

Setting [2] is: [3H]mesulergine 1 nM, 37° C. 30 minutes, Table 2, read-out: IC50.

The text below walks through data of patent US8324246B2, “Indol carboxylic acid bispyridyl carboxamide derivatives, pharmaceutically acceptable salt thereof, preparation method and composition containing the same as an active ingredient” (Korea Research Institute of Chemical Technology, priority 2008, dated 2012).

Where two headings read alike, the source gives them in different places. Some results are limits rather than exact numbers.

Chain of 5-HT7 (P34969 whole entry, species assumed): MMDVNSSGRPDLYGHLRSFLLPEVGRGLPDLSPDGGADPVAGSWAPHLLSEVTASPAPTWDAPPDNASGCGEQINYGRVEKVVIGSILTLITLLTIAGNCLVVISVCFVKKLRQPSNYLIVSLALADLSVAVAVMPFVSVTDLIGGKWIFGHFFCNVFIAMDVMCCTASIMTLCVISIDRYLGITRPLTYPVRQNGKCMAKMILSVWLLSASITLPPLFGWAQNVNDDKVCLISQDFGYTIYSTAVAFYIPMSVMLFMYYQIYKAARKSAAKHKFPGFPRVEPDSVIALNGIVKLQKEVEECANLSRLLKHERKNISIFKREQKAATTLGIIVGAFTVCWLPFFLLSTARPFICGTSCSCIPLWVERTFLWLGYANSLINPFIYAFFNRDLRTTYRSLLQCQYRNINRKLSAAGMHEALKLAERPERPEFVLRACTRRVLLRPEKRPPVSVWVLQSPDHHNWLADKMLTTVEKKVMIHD
Chain of D2 (P14416 whole entry): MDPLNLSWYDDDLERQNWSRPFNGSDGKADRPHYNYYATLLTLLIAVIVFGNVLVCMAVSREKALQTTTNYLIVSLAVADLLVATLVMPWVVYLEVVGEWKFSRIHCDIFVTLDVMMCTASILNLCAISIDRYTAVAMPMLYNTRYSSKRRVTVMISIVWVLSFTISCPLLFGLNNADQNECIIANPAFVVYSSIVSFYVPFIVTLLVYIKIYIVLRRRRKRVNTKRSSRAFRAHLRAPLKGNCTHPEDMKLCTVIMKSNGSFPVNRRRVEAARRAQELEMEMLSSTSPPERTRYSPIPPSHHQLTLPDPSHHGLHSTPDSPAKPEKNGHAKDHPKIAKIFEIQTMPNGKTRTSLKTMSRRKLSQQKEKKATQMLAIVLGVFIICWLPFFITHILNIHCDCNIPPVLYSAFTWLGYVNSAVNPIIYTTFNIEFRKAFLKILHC
Chain of 5-HT6 (P50406 whole entry, species assumed): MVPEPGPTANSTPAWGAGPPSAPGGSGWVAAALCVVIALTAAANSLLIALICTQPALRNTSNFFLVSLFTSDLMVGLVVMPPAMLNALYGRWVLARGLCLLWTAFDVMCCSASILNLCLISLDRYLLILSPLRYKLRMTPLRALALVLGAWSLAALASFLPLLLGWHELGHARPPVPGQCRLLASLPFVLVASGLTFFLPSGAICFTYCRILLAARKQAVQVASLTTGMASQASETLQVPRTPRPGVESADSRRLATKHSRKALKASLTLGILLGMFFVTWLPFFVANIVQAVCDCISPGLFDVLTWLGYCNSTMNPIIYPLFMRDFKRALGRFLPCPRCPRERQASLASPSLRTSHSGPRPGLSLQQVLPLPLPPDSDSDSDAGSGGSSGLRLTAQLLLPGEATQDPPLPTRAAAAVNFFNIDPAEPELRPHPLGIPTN
Chain of D3 (P35462 whole entry): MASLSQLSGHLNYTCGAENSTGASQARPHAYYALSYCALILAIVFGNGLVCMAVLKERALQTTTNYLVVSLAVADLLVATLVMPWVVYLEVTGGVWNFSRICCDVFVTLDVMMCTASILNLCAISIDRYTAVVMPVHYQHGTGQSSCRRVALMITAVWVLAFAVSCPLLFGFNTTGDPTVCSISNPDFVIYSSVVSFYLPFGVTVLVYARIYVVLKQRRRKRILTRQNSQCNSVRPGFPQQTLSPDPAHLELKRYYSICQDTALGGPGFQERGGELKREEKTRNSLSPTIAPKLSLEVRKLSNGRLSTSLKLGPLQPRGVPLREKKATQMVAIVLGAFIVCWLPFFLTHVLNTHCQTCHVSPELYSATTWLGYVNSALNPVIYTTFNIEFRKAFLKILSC
Chain of 5-HT2a (P28223 whole entry, species assumed): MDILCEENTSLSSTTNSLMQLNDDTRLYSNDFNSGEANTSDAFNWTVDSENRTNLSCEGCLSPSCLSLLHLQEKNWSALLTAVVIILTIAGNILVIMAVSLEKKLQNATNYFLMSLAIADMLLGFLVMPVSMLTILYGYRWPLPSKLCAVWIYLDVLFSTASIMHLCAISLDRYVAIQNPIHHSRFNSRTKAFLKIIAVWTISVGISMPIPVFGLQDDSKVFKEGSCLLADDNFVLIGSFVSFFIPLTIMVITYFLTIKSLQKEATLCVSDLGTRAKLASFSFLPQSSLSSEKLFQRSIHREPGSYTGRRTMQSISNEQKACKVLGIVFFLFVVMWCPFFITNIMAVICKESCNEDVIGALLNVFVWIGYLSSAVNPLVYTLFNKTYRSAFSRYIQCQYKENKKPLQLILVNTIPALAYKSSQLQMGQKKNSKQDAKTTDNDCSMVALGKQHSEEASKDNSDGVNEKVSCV

`Cc1ccc2[nH]cc(C(=O)Nc3ccc(Oc4cccnc4C)nc3)c2c1` [Example 14, 5-methyl-1H-indole-3-carboxylic acid[6-(2-methyl-pyridine-3-yloxy)-pyridine-3-yl]-amide]: the half-maximal inhibitory concentration (IC50) was over 10000 nM on 5-HT1a; over 10000 nM at D4; over 10000 nM at 5-HT6; over 10000 nM on D3; over 10000 nM at 5-HT7; 4.5 nM in [1] (Table 3, read-out: IC50 5-HT2c). For the same molecule, the IC50 in assay [1] (setting [2]) was 4.5 nM; on D2, over 10000 nM; on 5-HT2a, over 1000 nM.
`COc1ccc2[nH]cc(C(=O)Nc3ccc(Oc4cccnc4C)nc3)c2c1` [Example 15, 5-methoxy-1H-indole-3-carboxylic acid[6-(2-methyl-pyridine-3-yloxy)-pyridine-3-yl]-amide]: the IC50 at 5-HT1a was over 10000 nM; at D4, over 10000 nM; on 5-HT6, over 10000 nM; on D3, over 10000 nM; on 5-HT7, over 10000 nM; in assay [1] (Table 3, read-out: IC50 5-HT2c) it was 10.7 nM. Moreover, the concentration for half-maximal inhibition (IC50) in assay [1] (setting [2]) is 10.7 nM; on D2 it was over 10000 nM; on 5-HT2a it was over 10000 nM.
In the case of `Cc1ccc2c(C(=O)Nc3ccc(Oc4cccnc4C)nc3)c[nH]c2c1` [Example 16, 6-methyl-1H-indole-3-carboxylic acid[6-(2-methyl-pyridine-3-yloxy)-pyridine-3-yl]-amide], the IC50 was over 10000 nM on 5-HT1a; over 10000 nM on D4; over 10000 nM on 5-HT6; over 10000 nM on D3; over 10000 nM on 5-HT7; 1.9 nM in assay [1] (Table 3, read-out: IC50 5-HT2c). The results for the IC50 (in assay [1] (setting [2]); on D2; on 5-HT2a) were 1.9 nM, over 10000 nM and over 10000 nM, respectively.
For the molecule `Cc1ncccc1Oc1ccc(NC(=O)c2c[nH]c3c(C)cccc23)cn1` [Example 17, 7-methyl-1H-indole-3-carboxylic acid[6-(2-methyl-pyridine-3-yloxy)-pyridine-3-yl]-amide], the IC50 is over 10000 nM at 5-HT1a; over 10000 nM at D4; over 10000 nM at 5-HT6; over 10000 nM on D3; over 10000 nM at 5-HT7; 8.2 nM in assay [1] (Table 3, read-out: IC50 5-HT2c). The figures for the IC50 (in assay [1] (setting [2]); on D2; on 5-HT2a) were 8.2 nM, over 10000 nM and over 10000 nM, respectively.
On to `Cc1ncccc1Oc1ccc(NC(=O)c2c[nH]c3ccc(I)cc23)cn1` [Example 18, 5-iodo-1H-indole-3-carboxylic acid[6-(2-methyl-pyridine-3-yloxy)-pyridine-3-yl]-amide], for which the half-maximal inhibitory concentration (IC50) was 780 nM at 5-HT1a; over 1000 nM on D4; over 1000 nM on 5-HT6; over 1000 nM at D3; over 1000 nM on 5-HT7; 0.62 nM in assay [1] (Table 3, read-out: IC50 5-HT2c). Further, the figures for the IC50 (in [1] (setting [2]); on D2; on 5-HT2a) were 0.6 nM, over 10000 nM and 84.7 nM, respectively.
For the molecule `O=C(Nc1ccc(OCc2ccccn2)nc1)c1c[nH]c2ccccc12` [Example 20, 1H-indole-3-carboxylic acid[6-(pyridine-2-ylmethoxy)-pyridine-3-yl]-amide], the half-inhibitory concentration (IC50) on 5-HT1a was over 10000 nM; on D4, over 10000 nM; on 5-HT6 it was over 1000 nM; at D3, over 10000 nM; on 5-HT7, over 10000 nM; in [1] (Table 3, read-out: IC50 5-HT2c), 5.9 nM. For the same molecule, the results for the IC50 (in assay [1] (setting [2]); on D2; on 5-HT2a) were 5.9 nM, over 10000 nM and over 10000 nM, respectively.
Turning to `O=C(Nc1ccc(Oc2cccnc2Cl)nc1)c1c[nH]c2ccccc12` [Example 22, 1H-indole-3-carboxylic acid[6-(2-chloro-pyridine-3-yloxy)-pyridine-3-yl]-amide], the IC50 at 5-HT1a is over 10000 nM; at D4, over 1000 nM; on human 5-HT2c receptors (read-out: IC50, antagonist activity on serotonin (5-HT)-induced GTP level increase, 30 M serotonin) it was 590 nM; at 5-HT6, over 10000 nM; on D3, over 10000 nM; on 5-HT7 it was over 10000 nM. For the same molecule, the IC50 was 0.5 nM in [1] (Table 3, read-out: IC50 5-HT2c); 0.5 nM in [1] (setting [2]); over 10000 nM at D2; over 1000 nM at 5-HT2a. The “Inhibition rate of serotonin (5-HT)-induced [35S]GTPS increase” value stood at 0% on human 5-HT2c receptors (concentration 0.001 µM); 1% on human 5-HT2c receptors (concentration 0.01 µM); 9% at human 5-HT2c receptors (concentration 0.1 µM); 67% at human 5-HT2c receptors (concentration 1 µM); 100% on human 5-HT2c receptors (concentration 10 µM).
As to `Cc1cc2c(cc1Cl)N(C(=O)Nc1ccc(Oc3cccnc3C)nc1)CC2` [SB242084, reference compound], at human 5-HT2c receptors (control 5-HT2c antagonist), the “inhibition of the 5-HT-induced increase in [35S]GTPS concentration level” value was “inhibited”.
